From ChEMBL document CHEMBL3507680, “University of Dundee, Gates Library screen for HepG2 cell viability”

Experiment: Human HepG2 cell viability assay in 384 well format
Type: toxicity, cell-based
Set-up: dose 125 nL, time 70.5 hour; concentration not given beside the values
Conditions: HepG2 cells, read-out: Inhibition

CSCC[C@H]1CN2CCC[C@H]2CN1Cc1cn(C)nc1C
cytotoxicity at 70.5 h: -3.69%

CSCC[C@@H]1CN2CCC[C@H]2CN1Cc1cn(C)nc1C
cytotoxicity at 70.5 h: 19.2%

Cc1nc[nH]c1CN1CCN(C2CCOCC2)CC(C(N)=O)C1 (configuration not stated)
cytotoxicity at 70.5 h: -9.69%

Cc1nn(C)c(C)c1-c1cnc(C2CCCN(C)C2)cn1 (configuration not stated)
cytotoxicity at 70.5 h: -7.8%

CCCNC(=O)c1cncc(CC2CCCN(C)C2)c1 (configuration not stated)
cytotoxicity at 70.5 h: -6.34%

CC(C)N(Cc1ccccc1)C(=O)c1cc(C2CCCN2C)ccn1 (configuration not stated)
cytotoxicity at 70.5 h: -6.6%

CCc1nnc(Nc2cccc(C3CCN(C(=O)CO)CC3)n2)s1
cytotoxicity at 70.5 h: -4.24%

Cc1cccnc1C(=O)N1C[C@@H]2CC[C@H](Oc3cccc(F)c3)[C@@H]2C1
cytotoxicity at 70.5 h: -8.25%

CCc1cc(C(F)(F)F)c2c(C3CCN(C(=O)COC)CC3)noc2n1
cytotoxicity at 70.5 h: -6.22%

COCCC(=O)N1CCCC(c2noc3nc(C)cc(C(F)(F)F)c23)C1 (configuration not stated)
cytotoxicity at 70.5 h: -5.21%

COCC(=O)N1CCCC(c2noc3nc(C)cc(C(F)(F)F)c23)C1 (configuration not stated)
cytotoxicity at 70.5 h: 12.8%

Cc1ccc(-n2c(SCC(=O)O)nnc2-c2ccccc2)cc1
cytotoxicity at 70.5 h: -7.44%

Cc1ccc(-n2c(SCC(=O)O)nnc2-c2cccc(C)c2)cc1
cytotoxicity at 70.5 h: -7.34%

CC(=O)N1CCC(Cc2cnc(C(=O)N3CCCC3)cn2)C1 (configuration not stated)
cytotoxicity at 70.5 h: -4.28%

Cc1nc(C2CN(C)CCO2)cc(N2CCSCC2)n1 (configuration not stated)
cytotoxicity at 70.5 h: 26.1%

N#Cc1ccc(CN2CCCCC2Cn2cncn2)cc1 (configuration not stated)
cytotoxicity at 70.5 h: 11.7%

Cn1ccc(C(=O)Nc2nc(-c3ccc4c(c3)CCO4)cs2)cc1=O
cytotoxicity at 70.5 h: -6.04%

COC(=O)C(C)CN(C)S(=O)(=O)c1c(Br)cc2[nH]c(=O)oc2c1Cl (configuration not stated)
cytotoxicity at 70.5 h: -4.98%

CCNC(=O)CN(CC)S(=O)(=O)c1c(Br)cc2[nH]c(=O)oc2c1Cl
cytotoxicity at 70.5 h: -12.3%

CC(C)(C)OC(=O)N[C@H]1CCN(C(=O)c2cc(Cl)c[nH]2)C1
cytotoxicity at 70.5 h: -4.47%

CCc1cnc(CN(C)C(=O)Nc2cnc3c(c2)c(C)nn3C)s1
cytotoxicity at 70.5 h: -2.27%

COc1ccc(CNCc2cc(Br)c3c(c2)OCO3)cc1
cytotoxicity at 70.5 h: -3.3%

N#Cc1ccc(CN2CCCC(Cn3cncn3)C2)c(F)c1 (configuration not stated)
cytotoxicity at 70.5 h: 8.28%

CNC(=O)N1CCOC(C)(c2cnn(C)c2)C1 (configuration not stated)
cytotoxicity at 70.5 h: -5.87%

COc1ccccc1CC1CCCN(C(=O)c2nccnc2N)C1 (configuration not stated)
cytotoxicity at 70.5 h: -6.5%

N#Cc1cc(F)ccc1CN1CCCCC1Cn1cncn1 (configuration not stated)
cytotoxicity at 70.5 h: -4.9%

CC(=O)N1CCCN(CCCSc2ccccc2Cl)CC1
cytotoxicity at 70.5 h: -6.8%

Cc1ccc(CNCc2cc(Br)c3c(c2)OCO3)cc1
cytotoxicity at 70.5 h: -5.25%

N#Cc1cccc(CN2CCCC2Cn2cncn2)c1 (configuration not stated)
cytotoxicity at 70.5 h: -4.98%

CC(=O)N1CCCN(CCCSCc2ccccc2)CC1
cytotoxicity at 70.5 h: -6.67%

COC(=O)c1cc(NCc2cscn2)ccc1C
cytotoxicity at 70.5 h: -4.82%

CN(Cc1cc(Cl)cc2cccnc12)CC1CCN(CCO)CC1
cytotoxicity at 70.5 h: -2.37%

CC(c1nc(-c2ccccc2)no1)N1CCc2c(ncn2C2CC2)C1 (configuration not stated)
cytotoxicity at 70.5 h: -2.24%

CCNC(=O)c1ccc(NC(=O)N(C)Cc2cccn2C)c(C)c1
cytotoxicity at 70.5 h: 5.27%

CCC1(CC)CC(=O)N(CC(O)c2ccc(Cl)cc2)C1=O (configuration not stated)
cytotoxicity at 70.5 h: -4.91%

COCCCNC(=O)Nc1c(C)cccc1C(C)C
cytotoxicity at 70.5 h: -9.85%

COCC(C)NC(=O)c1sccc1-n1cnnn1 (configuration not stated)
cytotoxicity at 70.5 h: -2.58%

O=S(=O)(NCCCn1cncn1)c1ccc2c(c1)CCC2
cytotoxicity at 70.5 h: -5.6%

OC(CNCCc1nnc2ccccn12)c1ccc2c(c1)OCO2 (configuration not stated)
cytotoxicity at 70.5 h: -5.97%

CCc1cccc(C)c1NC(=O)NCCCN(CC)S(C)(=O)=O
cytotoxicity at 70.5 h: -3.01%

CCN(CCCNC(=O)Nc1ccccc1C(C)C)S(C)(=O)=O
cytotoxicity at 70.5 h: -4.67%

C[S+]([O-])c1cccc(NC(=O)N[C@H](CCO)c2ccccc2)c1 (some centres not stated)
cytotoxicity at 70.5 h: -2.3%

Cc1nnc(CN(C)CC(=O)NC(C)(C)c2ccc(F)cc2)n1C
cytotoxicity at 70.5 h: -6.19%

Cc1ccc(S(=O)(=O)Cc2nnc(C)n2C)cc1
cytotoxicity at 70.5 h: -2.49%

O=C(Nc1ccc2c(c1)C(=O)NC2=O)c1cccs1
cytotoxicity at 70.5 h: -4.03%

CC(C)c1nnc2n1CCN(Cc1cccc3c1OCCO3)C2
cytotoxicity at 70.5 h: 30%

CC1CCC(O)(CSc2nnnn2C2CC2)CC1 (configuration not stated)
cytotoxicity at 70.5 h: -1.68%

O=S(=O)(NCCCn1cncn1)c1ccc2c(c1)CCO2
cytotoxicity at 70.5 h: -5.26%

Cc1ccsc1CN1CCc2nc3ccsc3c(=O)n2CC1
cytotoxicity at 70.5 h: -4.51%

O=c1c2sccc2nc2n1CCN(Cc1ccccc1C(F)(F)F)CC2
cytotoxicity at 70.5 h: -10.4%

O=c1c2sccc2nc2n1CCN(Cc1cc(F)ccc1F)CC2
cytotoxicity at 70.5 h: -7.47%

O=C(CCC1CCCC1)N1CCCC(c2ncc3c(n2)CCNC3)C1 (configuration not stated)
cytotoxicity at 70.5 h: -1.37%

CC(c1ccc(F)cc1F)N1CCN(CCC(=O)O)CC1 (configuration not stated)
cytotoxicity at 70.5 h: -6.34%

Cc1cc(C[C@@H]2COC[C@H]2NCc2ccc(C)c(C)c2)on1
cytotoxicity at 70.5 h: -7.12%

CC(C)c1ncc(CN2CCC(CO)C2)cn1 (configuration not stated)
cytotoxicity at 70.5 h: -4.22%

Cc1cc(C[C@@H]2COC[C@H]2NCc2ccc(Cl)c(Cl)c2)on1
cytotoxicity at 70.5 h: 19.8%

CC1CCCN(Cc2ccnc(-c3cccnc3)n2)C1 (configuration not stated)
cytotoxicity at 70.5 h: -13%
